Columns and labels:
[1] = target: MAO-A (amine oxidase [flavin-containing] A) (Homo sapiens, UniProt P21397); experiment: (§1) MAO-A_ANTAG Eurofins SafetyScreen44 (BI); set-up: scale not given: the % may be the effect or the level left; details: compound concentration 10 uM, read-out: % Ctrl
[2] = target: Cannabinoid receptor 1 (Homo sapiens) (UniProt P21554); experiment: CB1(HU)_AGON Eurofins SafetyScreen44 (BI); details: filed as agonist, Compound concentration 10.0 uM
[3] = target: T1, Alpha-2A adrenergic receptor (Homo sapiens) (UniProt P08913); details: Compound concentration 10.0 uM
T1 sequence (whole entry): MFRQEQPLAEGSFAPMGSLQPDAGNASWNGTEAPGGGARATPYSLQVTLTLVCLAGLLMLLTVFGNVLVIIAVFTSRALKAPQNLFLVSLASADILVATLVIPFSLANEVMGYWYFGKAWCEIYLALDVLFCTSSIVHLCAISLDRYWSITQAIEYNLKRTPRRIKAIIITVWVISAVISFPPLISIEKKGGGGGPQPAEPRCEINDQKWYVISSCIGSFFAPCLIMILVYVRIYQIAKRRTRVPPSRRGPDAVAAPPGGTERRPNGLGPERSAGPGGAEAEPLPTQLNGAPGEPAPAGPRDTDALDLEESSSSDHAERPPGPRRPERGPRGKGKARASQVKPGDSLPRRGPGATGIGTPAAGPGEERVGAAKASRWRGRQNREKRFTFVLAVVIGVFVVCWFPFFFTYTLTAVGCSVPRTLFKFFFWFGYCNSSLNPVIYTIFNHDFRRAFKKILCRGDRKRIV

[4] = target: Prostaglandin G/H synthase 2 (Homo sapiens) (UniProt P35354); experiment: COX2_HU Eurofins SafetyScreen44 (BI); details: Compound concentration 10.0 uM
[5] = target: MAO-A (amine oxidase [flavin-containing] A) (Rattus norvegicus, UniProt P21396); experiment: as §1; set-up: scale not given: the % may be the effect or the level left; details: compound concentration 10 uM, read-out: % Ctrl
[6] = target: Muscarinic acetylcholine receptor M3 (Homo sapiens) (UniProt P20309); experiment: M3(H)ANTAG Eurofins SafetyScreen44 (BI); details: filed as antagonist, Compound concentration 10.0 uM
Sequence of Muscarinic acetylcholine receptor M3 (Homo sapiens) (P20309 whole entry, looked up): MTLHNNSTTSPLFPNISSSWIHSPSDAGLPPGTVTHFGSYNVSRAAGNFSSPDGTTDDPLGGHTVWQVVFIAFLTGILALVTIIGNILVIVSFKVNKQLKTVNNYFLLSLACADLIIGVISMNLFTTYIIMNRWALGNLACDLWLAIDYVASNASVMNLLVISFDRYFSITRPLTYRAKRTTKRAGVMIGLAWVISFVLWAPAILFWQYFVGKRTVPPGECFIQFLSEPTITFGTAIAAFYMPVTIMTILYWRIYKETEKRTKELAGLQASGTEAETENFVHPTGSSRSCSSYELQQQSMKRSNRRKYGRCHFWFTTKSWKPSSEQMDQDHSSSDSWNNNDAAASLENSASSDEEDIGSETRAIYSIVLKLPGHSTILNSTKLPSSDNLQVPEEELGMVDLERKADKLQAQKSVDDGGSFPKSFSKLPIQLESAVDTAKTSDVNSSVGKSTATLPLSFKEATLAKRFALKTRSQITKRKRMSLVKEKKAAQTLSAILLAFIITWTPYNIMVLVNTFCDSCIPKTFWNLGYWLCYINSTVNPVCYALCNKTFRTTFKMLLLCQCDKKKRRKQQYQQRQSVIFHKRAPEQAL

[7] = target: Histamine H4 receptor (Homo sapiens) (UniProt Q9H3N8); details: Compound concentration 10.0 uM
Sequence of Histamine H4 receptor (Homo sapiens) (Q9H3N8 whole entry): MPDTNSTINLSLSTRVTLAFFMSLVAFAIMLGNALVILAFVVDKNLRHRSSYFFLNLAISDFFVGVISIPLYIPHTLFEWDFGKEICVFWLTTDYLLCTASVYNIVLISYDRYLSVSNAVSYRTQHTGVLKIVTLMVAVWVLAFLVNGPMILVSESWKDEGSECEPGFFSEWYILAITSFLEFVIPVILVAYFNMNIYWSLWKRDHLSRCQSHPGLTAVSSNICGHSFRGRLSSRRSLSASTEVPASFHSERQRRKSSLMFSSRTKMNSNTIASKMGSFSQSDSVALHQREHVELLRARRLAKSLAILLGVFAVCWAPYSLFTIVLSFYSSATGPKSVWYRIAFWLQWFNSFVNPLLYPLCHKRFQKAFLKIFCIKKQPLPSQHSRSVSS

[8] = target: 5-hydroxytryptamine receptor 2A (Homo sapiens) (UniProt P28223); details: Compound concentration 10.0 uM
Sequence of 5-hydroxytryptamine receptor 2A (Homo sapiens) (P28223 whole entry): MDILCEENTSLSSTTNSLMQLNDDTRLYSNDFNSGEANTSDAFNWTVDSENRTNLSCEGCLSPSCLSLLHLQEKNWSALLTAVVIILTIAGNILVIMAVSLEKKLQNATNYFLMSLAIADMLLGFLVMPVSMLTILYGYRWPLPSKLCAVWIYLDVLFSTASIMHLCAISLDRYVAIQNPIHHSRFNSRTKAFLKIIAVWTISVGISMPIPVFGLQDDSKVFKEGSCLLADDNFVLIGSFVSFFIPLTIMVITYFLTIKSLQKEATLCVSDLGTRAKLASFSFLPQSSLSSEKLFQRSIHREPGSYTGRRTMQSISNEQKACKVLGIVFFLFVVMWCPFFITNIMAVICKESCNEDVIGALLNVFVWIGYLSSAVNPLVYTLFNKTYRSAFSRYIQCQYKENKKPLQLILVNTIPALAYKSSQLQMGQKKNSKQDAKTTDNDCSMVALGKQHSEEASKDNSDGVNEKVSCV

[9] = target: Muscarinic acetylcholine receptor M3 (Homo sapiens) (UniProt P20309); details: Compound concentration 10.0 uM
[10] = target: T2, Alpha-1A adrenergic receptor (Homo sapiens) (UniProt P35348); experiment: ALPHA1A(H)AGON Eurofins SafetyScreen44 (BI); details: filed as agonist, Compound concentration 10.0 uM
T2 sequence (whole entry): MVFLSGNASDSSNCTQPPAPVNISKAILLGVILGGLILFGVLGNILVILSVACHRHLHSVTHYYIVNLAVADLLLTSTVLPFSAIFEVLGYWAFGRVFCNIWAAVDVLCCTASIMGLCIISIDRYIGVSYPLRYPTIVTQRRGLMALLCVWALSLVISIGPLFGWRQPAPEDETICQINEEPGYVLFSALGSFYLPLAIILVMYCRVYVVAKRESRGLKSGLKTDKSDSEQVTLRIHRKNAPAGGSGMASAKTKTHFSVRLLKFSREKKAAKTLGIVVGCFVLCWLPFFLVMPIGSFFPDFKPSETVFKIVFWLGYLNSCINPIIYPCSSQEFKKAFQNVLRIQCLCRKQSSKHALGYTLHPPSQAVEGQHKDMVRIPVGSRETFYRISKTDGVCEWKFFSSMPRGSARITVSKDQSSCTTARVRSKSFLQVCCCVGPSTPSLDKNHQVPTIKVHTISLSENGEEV

[11] = species on record: Rattus norvegicus; details: Compound concentration 10.0 uM
[12] = target: 5-hydroxytryptamine receptor 1B (Rattus norvegicus) (UniProt P28564); experiment: 5HT1B/R Eurofins SafetyScreen44 (BI); details: Compound concentration 10.0 uM
[13] = target: D(3) dopamine receptor (Homo sapiens) (UniProt P35462); details: Compound concentration 10.0 uM
Sequence of D(3) dopamine receptor (Homo sapiens) (P35462 whole entry): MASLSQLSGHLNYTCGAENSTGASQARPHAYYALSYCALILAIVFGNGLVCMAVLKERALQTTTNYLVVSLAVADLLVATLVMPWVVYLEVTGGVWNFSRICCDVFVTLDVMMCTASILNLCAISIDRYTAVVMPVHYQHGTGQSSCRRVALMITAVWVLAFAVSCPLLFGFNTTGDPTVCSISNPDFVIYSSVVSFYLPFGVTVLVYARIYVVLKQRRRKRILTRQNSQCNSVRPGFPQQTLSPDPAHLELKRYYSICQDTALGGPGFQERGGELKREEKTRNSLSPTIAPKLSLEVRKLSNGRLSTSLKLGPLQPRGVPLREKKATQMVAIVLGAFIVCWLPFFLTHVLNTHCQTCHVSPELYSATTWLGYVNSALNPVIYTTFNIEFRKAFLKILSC

[14] = target: T2, Alpha-1A adrenergic receptor (Homo sapiens); details: Compound concentration 10.0 uM
[15] = target: T3, 5-hydroxytryptamine receptor 1A (Homo sapiens) (UniProt P08908); details: Compound concentration 10.0 uM
T3 sequence (whole entry): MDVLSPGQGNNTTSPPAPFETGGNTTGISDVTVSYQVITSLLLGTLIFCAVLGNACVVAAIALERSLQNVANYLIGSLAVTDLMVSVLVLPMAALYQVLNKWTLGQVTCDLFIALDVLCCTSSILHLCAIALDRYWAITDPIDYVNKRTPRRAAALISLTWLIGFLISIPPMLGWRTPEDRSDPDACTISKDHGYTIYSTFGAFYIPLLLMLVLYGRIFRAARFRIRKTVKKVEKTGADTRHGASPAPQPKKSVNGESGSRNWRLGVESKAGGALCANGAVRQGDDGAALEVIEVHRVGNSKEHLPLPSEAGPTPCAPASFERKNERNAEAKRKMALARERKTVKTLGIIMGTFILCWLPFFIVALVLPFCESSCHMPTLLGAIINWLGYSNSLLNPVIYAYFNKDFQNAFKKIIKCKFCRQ

[16] = target: Muscarinic acetylcholine receptor M5 (Homo sapiens) (UniProt P08912); details: Compound concentration 10.0 uM
Sequence of Muscarinic acetylcholine receptor M5 (Homo sapiens) (P08912 whole entry): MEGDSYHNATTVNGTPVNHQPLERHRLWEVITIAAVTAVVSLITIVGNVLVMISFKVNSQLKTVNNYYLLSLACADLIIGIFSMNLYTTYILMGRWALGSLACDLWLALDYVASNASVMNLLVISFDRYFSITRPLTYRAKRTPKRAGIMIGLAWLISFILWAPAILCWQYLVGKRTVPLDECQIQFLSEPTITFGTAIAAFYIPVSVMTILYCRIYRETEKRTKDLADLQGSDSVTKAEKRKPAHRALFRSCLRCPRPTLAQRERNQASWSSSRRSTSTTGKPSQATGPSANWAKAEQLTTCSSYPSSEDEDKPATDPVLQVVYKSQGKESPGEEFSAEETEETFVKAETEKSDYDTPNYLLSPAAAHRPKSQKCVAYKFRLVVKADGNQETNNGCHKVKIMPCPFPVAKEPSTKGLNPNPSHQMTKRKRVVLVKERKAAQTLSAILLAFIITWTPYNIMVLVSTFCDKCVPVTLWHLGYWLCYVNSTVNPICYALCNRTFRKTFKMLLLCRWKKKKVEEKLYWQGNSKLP

[17] = target: 5-hydroxytryptamine receptor 1B (Homo sapiens) (UniProt P28222); details: Compound concentration 10.0 uM
[18] = target: 5-hydroxytryptamine receptor 7 (Homo sapiens) (UniProt P34969); details: Compound concentration 10.0 uM
Sequence of 5-hydroxytryptamine receptor 7 (Homo sapiens) (P34969 whole entry): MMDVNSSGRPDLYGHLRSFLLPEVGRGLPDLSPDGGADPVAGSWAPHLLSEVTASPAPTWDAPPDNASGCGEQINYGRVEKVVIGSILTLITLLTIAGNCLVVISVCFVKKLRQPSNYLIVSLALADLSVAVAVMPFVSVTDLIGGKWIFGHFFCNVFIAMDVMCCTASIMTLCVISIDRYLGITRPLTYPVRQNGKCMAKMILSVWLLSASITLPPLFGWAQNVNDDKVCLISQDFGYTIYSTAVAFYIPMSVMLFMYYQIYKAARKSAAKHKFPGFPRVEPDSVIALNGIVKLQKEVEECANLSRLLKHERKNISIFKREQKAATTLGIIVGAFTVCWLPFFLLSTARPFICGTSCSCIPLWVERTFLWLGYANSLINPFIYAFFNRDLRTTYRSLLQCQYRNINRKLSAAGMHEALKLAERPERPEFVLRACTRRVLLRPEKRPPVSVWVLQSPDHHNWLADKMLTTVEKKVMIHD

[19] = target: Histamine H3 receptor (Homo sapiens, UniProt Q9Y5N1); experiment: GPCRScan assay: inhibition of H3; set-up: radioligand conc. used [nm] 0.5 – 1.0, parental cells HEK Flp-In
Sequence of Histamine H3 receptor (Q9Y5N1 whole entry): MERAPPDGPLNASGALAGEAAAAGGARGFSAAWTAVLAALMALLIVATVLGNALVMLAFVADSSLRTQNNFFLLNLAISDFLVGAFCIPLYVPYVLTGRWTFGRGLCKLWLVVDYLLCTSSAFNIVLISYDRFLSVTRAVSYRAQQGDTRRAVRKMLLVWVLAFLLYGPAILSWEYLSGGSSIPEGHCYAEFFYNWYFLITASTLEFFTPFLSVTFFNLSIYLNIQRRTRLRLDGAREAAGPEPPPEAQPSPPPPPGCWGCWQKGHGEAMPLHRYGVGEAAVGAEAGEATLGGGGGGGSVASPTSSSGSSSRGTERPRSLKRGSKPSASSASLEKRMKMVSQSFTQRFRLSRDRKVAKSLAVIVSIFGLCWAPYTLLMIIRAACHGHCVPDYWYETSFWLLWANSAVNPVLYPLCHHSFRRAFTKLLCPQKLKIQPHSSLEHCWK

[20] = target: Muscarinic acetylcholine receptor M3 (Homo sapiens) (UniProt P20309); experiment: M3(H)AGON Eurofins SafetyScreen44 (BI); details: filed as agonist, Compound concentration 10.0 uM
[21] = target: Alpha-2B adrenergic receptor (Homo sapiens) (UniProt P18089); details: Compound concentration 10.0 uM
[22] = target: Alpha-1D adrenergic receptor (Homo sapiens) (UniProt P25100); details: Compound concentration 10.0 uM
[23] = target: 5-hydroxytryptamine receptor 5A (Homo sapiens) (UniProt P47898); details: Compound concentration 10.0 uM
Sequence of 5-hydroxytryptamine receptor 5A (Homo sapiens) (P47898 whole entry): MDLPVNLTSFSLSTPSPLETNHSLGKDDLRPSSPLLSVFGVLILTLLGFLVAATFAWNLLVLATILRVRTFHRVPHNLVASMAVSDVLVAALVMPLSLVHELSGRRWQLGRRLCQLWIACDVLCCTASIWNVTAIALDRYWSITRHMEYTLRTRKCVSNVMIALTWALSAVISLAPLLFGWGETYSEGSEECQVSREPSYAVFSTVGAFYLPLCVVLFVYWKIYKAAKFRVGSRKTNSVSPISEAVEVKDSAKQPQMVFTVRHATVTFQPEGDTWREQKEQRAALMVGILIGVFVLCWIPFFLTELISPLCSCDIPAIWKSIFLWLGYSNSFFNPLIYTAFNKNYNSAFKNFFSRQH

[24] = target: Beta-3 adrenergic receptor (Homo sapiens) (UniProt P13945); details: Compound concentration 10.0 uM
Sequence of Beta-3 adrenergic receptor (Homo sapiens) (P13945 whole entry, looked up): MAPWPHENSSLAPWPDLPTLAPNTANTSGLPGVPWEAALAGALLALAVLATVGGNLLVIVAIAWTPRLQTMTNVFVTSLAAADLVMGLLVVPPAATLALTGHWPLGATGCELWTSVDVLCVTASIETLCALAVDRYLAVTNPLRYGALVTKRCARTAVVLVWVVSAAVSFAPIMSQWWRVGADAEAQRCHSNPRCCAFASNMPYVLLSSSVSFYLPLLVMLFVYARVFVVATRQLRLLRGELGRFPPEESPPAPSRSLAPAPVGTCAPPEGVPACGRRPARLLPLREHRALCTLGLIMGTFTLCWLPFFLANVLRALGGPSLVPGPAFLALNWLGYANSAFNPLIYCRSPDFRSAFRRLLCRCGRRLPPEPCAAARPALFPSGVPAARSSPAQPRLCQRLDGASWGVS

[25] = target: Mu-type opioid receptor (Homo sapiens) (UniProt P35372); details: Compound concentration 10.0 uM
Sequence of Mu-type opioid receptor (Homo sapiens) (P35372 whole entry): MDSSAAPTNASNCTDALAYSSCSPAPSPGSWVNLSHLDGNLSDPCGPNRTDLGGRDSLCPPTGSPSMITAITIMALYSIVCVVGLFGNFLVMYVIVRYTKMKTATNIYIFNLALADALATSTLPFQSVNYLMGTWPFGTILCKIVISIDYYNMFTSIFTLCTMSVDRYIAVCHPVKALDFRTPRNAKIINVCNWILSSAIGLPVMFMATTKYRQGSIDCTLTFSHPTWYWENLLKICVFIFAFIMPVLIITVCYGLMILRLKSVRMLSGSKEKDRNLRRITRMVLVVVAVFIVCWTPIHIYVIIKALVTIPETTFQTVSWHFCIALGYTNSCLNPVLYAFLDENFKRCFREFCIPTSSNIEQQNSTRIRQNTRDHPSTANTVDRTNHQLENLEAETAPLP

[26] = target: Sigma intracellular receptor 2 (Homo sapiens) (UniProt Q5BJF2); details: Compound concentration 10.0 uM
Sequence of Sigma intracellular receptor 2 (Homo sapiens) (Q5BJF2 whole entry): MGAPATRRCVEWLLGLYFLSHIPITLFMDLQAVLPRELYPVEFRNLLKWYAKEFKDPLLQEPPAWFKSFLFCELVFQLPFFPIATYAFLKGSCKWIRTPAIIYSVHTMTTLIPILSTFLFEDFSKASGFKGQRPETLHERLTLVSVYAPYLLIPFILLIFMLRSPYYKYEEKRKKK

`CCn1c(CNC(=O)c2ncc(C)nc2N)[n+](CC)c2ccc(C(=O)N(C)CN(C)C)cc21` was tested, and the activity at 10 µM [1] was 95% (not active) and the residual activity [2] was 111%.
In the case of `CCn1c(CNC(=O)c2nc(Cl)cnc2N)[n+](CC)c2ccc(C(=O)N(C)CCN(C)C)cc21`, the inhibition [3] is reported as 0.56%, the residual activity [4] is reported as 85% and the activity at 10 µM [5] is reported as 89% (not active). It also gave a residual activity [6] of 96%, an inhibition [7] of -7.37% and an inhibition [8] of -1.15%. For the same compound, the inhibition [9] was 23.3%, the residual activity [10] was 99.6% and the inhibition [11] was -1.51%. The residual activity [12] was 113%, the inhibition [13] was 8.95% and the inhibition [14] was -1.19%. For the same compound, the inhibition [15] was -4.21%, the inhibition [16] was 18.7% and the inhibition [17] was 8.35%. For the same compound, the inhibition [18] was 4.76%, the Ki ([19]; read-out: Ki) was 257 nM and the Ki ([19]; read-out: pKi (converted)) was 219 nM. For the same compound, the residual activity [20] was 102%, the inhibition [21] was 0.45% and the inhibition [22] was 1.74%. The inhibition [23] was -6.08%, the inhibition [24] was -2.81% and the inhibition [25] was 11%. It also gave an inhibition [26] of -0.91%.

From ChEMBL document CHEMBL5303762, “Data for DCP probe BI-8668” (2023)
